This note sets out measurements from PMC12381781, “Structural and functional insights into the selective inhibition of mutant tau aggregation by purpurin and oleocanthal in frontotemporal dementia” (Protein Science : A Publication of the Protein Society, 2025).

What is called koff is a measure of how fast the partners let go of each other. One may read the Kd as the equilibrium constant for the complex coming apart. The term kon denotes a measure of how fast the partners come together. Read a high kon as fast association.

One assay has as its target R2R3 (V287I) tau peptide (Homo sapiens, UniProt P10636, V604I). Description: ThT aggregation assay of monomeric R2R3 (V287I) peptide. In kind it is biochemical. The settings on record: for ThT-stained aggregates, confocal imaging: R2R3 V287I, compound 10 μM, end of ThT assay. Here is the method: The aggregation kinetics of tau peptides were monitored using a ThT assay. A 40 μL reaction mixture containing 15 μM ThT (Sigma‐Aldrich, Cat. # T3516‐5G) and 50 μM peptide in the absence (control) or presence of 0.1 μM, 1 μM, and 10 μM PUR or OLC was prepared on ice in aggregation buffer (20 mM Tris [pH 7.4], 100 mM NaCl, 1 mM ethylenediaminetetraacetic acid [EDTA]) containing 5 μM heparin (Sigma‐Aldrich, Cat. #H4784). dithiothreitol (DTT) was excluded to avoid its differential effects on the aggregation kinetics of tau peptides containing Cys291 or Cys322 and to prevent peroxide generation by redox‐active compounds like PUR, which can lead to oxidative artifacts and false‐positive inhibition signals, as reported in our previous study (Annadurai, Malina, Salmona, et al., [2022]). This mixture was then dispensed into a clear‐bottom, black 384‐well ViewPlate (Revvity, Waltham, MA, United States; Part # 6007460) and sealed with a TopSealA‐PLUS (Revvity) to prevent evaporation.
Aggregation was monitored using EnSpire Multimode Plate Reader (Revvity) at 37°C with constant agitation (1000 rpm). To minimize condensation, the upper heater temperature was set to 2°C higher than the lower heater temperature. ThT fluorescence (ThT—λ ex: 460–490 nm and λem: 500–550 nm) was recorded every 5–10 min for 48 h.
ThT fluorescence curves were fitted to a sigmoidal function in GraphPad Prism (version 10, San Diego, CA, USA) using the following equation:
Y=Top/1+expV50–X/Slope , where Y is the ThT fluorescence intensity, X is time (h), Top is the maximum fluorescence intensity, V50 is the time to reach 50% of Top, and Slope describes the steepness of the aggregation transition. Baseline fluorescence at the start of the measurements was relatively low across samples and was not separately fitted. In samples showing early increases in fluorescence, the aggregation trajectory was modeled directly without introducing an independent baseline parameter.
The V50 value obtained from each replicate was used as the aggregation t 1/2 for statistical analysis.
To evaluate the effect of compounds on the extent of aggregation, the AUC was calculated for each replicate ThT fluorescence curve using GraphPad Prism. AUC values were then normalized to the mean AUC of the untreated control group and expressed as “aggregation (% of control),” serving as an indirect and comparative measure of fibril formation.
Figure S11. Confocal imaging of ThT-stained aggregates formed in the presence of PUR and OLC (corresponding to Figure 3). […] ThT fluorescence was acquired using a Yokogawa Cell Voyager 7000S high-content imaging system equipped with a 20× objective (Ex: 460–490 nm, Em: 500–550 nm) and analyzed with Signals Image Artist (Revvity). […]

A further assay addresses R2R3 (P301L) tau peptide (Homo sapiens, UniProt P10636, P618L). The experiment in a line: SPR titration cycle kinetics, immobilized R2R3 (P301L) peptide. In kind it is binding. The method, then: SPR experiments were conducted using the Sierra® SPR‐24 Pro system (Bruker Daltonics, Bremen, Germany), featuring a gold‐coated microfluidic array (24 detection spots, 3 × 8 format). Data acquisition and kinetic analysis were performed using SPR Analyzer 4 software.
All experiments were conducted at 25°C using PBS (pH 7.4) supplemented with 0.05% Tween‐20 and 5% DMSO as the running buffer to ensure assay reproducibility. Assay components, including 96‐well microtiter plates (Part # 1862984; Burker) and Microplate and Reservoir Sealer (Part #1862985; Burker), were used for sample handling and were compatible with the Sierra SPR®‐24 Pro system (Bruker Daltonics, Billerica, MA, USA).
WT and mutant (P301L, V287I, and N279K) tau peptides were dissolved in 10 mM sodium acetate buffer (pH 5.0; Burker) and immobilized onto High‐Capacity Amine Sensor Surfaces (Part #1862614; Bruker) using the Amine Coupling Kit (Part #1862634; Bruker). The sensor surface was preconditioned with a Surface Elution Buffer (Part #1862656; Bruker Daltonics) and 0.1M HCl to remove contaminants and improve binding specificity.
The surface was activated using 400 mM 1‐ethyl‐3‐(3‐dimethylaminopropyl) carbodiimide (Burker) and 50 mM N‐hydroxysuccinimide (Burker), enabling covalent attachment of tau peptides. Unreacted binding sites were blocked with 1M ethanolamine‐HCl (pH 8.5; Burker) to minimize nonspecific interactions. For each experiment, specific sensor spots (A/B/C) on channels 1–8 were designated for tau‐analyte interactions, with corresponding reference spots on the same channel for baseline correction. DMSO calibration solutions (4.6%, 4.8%, 5%, 5.2%, and 5.4%) were prepared for double referencing to compensate for DMSO solvent effects.
PUR and OLC were prepared in PBS (pH 7.4) supplemented with 0.05% Tween‐20 and 5% DMSO. Compound interactions with tau peptides were pre‐screened using a concentration range of 1–100 μM, and subsequent binding kinetics were evaluated at optimized concentrations. For kinetic studies, PUR was tested at […], while OLC was tested at 25–100 μM using two‐fold serial dilutions. Each analyte was sequentially injected, and association and dissociation phases were monitored to determine kinetic parameters.
SPR binding kinetics were assessed using the titration cycle kinetics (TCK) assay, which included consecutive association phases followed by a single dissociation phase. Pre‐assay simulations using the Kinetic Simulator feature of SPR Analyzer 4 software were used to optimize analyte concentration ranges and association/dissociation times. A reference blank injection was included for double referencing, and a single dissociation curve was recorded for the highest analyte concentration.
Sensorgrams were analyzed using the Kinetic Titration model, which was integrated into the global kinetic fitting model of the SPR Analyzer 4 software. This approach allowed for baseline correction and improved the reliability of kinetic parameters, including the Kon, Koff, and KD.
TCK‐derived kinetic parameters were compared across multiple runs and confirmed using Multi Injection Cycle Kinetics to validate reproducibility and accuracy.

Read-outs that look alike come from different tables or passages of the source.

R2R3 (P301L) tau peptide, sequence (P10636 592-653 P618L): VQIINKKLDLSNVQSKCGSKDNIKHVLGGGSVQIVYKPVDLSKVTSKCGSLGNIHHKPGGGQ
R2R3 (V287I) tau peptide, sequence (P10636 592-653 V604I): as the sequence (P10636 592-653 P618L) above, with V13I, L27P counted along it

Turning to `C/C=C(/C=O)[C@@H](CC=O)CC(=O)OCCc1ccc(O)cc1` [OLC, oleocanthal], the “aggregation (% of control), AUC of ThT fluorescence” value on R2R3 (V287I) tau peptide (R2R3 V287I 50 μM, compound 0.1 μM) turned out to be 71%. In addition, the “ThT-stained aggregates, confocal imaging” value on R2R3 (V287I) tau peptide is “marked reduction in ThT signal”. On R2R3 (P301L) tau peptide (SPR, R2R3 P301L), the Kon is 52.36 M⁻¹ s⁻¹ and the koff stood at 8.26e-05 s⁻¹. Also, the Kd on R2R3 (P301L) tau peptide (SPR, R2R3 P301L peptide immobilized, 25°C, PBS pH 7.4, read-out: KD) is 1.58 µM.

Take `O=C1c2ccccc2C(=O)c2c(O)c(O)cc(O)c21` [PUR, purpurin]: the remaining activity at 0.1 µM at R2R3 (V287I) tau peptide (R2R3 V287I 50 μM, compound 0.1 μM, read-out: aggregation (% of control), AUC of ThT fluorescence) worked out at 44%. At R2R3 (V287I) tau peptide, the “ThT-stained aggregates, confocal imaging” value is listed as “marked reduction in ThT signal”. The same compound gave a dissociation constant Kd at R2R3 (P301L) tau peptide of 14.8 µM. For the same compound, the on-rate constant (kon) at R2R3 (P301L) tau peptide (SPR, R2R3 P301L) came out at 26.4 M⁻¹ s⁻¹. Moreover, on R2R3 (P301L) tau peptide (SPR, R2R3 P301L, read-out: Koff), the koff turned out to be 0.00039 s⁻¹.
